Measured values as given in patent US12569453B2, “Use of tapinarof for the treatment of atopic dermatitis” (Dermavant Sciences GmbH, priority 2018, dated 2026).
Marks after values point to notes of the source that are not given here.

Test system: adult subjects with psoriasis
Assay: Phase II/2b clinical study in plaque psoriasis: efficacy and patient-reported outcomes
Assay type: in vivo, human
Settings: for PGA response rate (primary endpoint): interim analysis; for subjects with ≥4 improvement in pruritus NRS score from baseline: baseline NRS score ≥4; for PGA response rate (PGA 0 or 1 and ≥2-grade improvement): mITT OC; for PGA treatment success: Week 16 (4 weeks after end of treatment)
Text: This was a multicenter (United States, Canada, and Japan), randomized, double-blind (Sponsor-unblind), vehicle-controlled, 6-arm, parallel-group, dose-finding study in adult subjects with psoriasis. Certain study personnel at each site were unblinded to dose-frequency.
The study consisted of 3 periods: up to 4 weeks Screening, 12 weeks double-blind treatment, and 4 weeks post-treatment follow-up. Study visits occurred at Screening; Baseline; weeks 1, 2, 4, 8, and 12 during the treatment period; and 2 and 4 weeks after the last application of study treatment (i.e., at weeks 14 and 16). Additional visits could occur, as needed, for early withdrawals or to follow-up on any skin reactions or ongoing AEs. A subject's total duration of study participation was approximately 16 to 20 weeks.
Two concentrations of Tapinarof cream (0.5% and 1%) and a vehicle control were evaluated following application to all psoriasis lesions (except on the scalp) once (QD) or twice daily (BID) for 12 weeks. There were no planned dose adjustments during the study.
Efficacy was assessed by using a 5-point static Physician Global Assessment (PGA) (0-4 scale), the Psoriasis Area and Severity Index (PASI), % BSA involvement, target lesion assessments (erythema, scaling, and plaque thickness), and subject-reported itch/pruritus severity using a numeric rating scale (NRS) (from the Psoriasis Symptom Diary [PSD]). Additional subject-reported outcomes included the daily PSD (which also contained severity and bother items for 3 additional symptoms). Investigator global impression of change item (assessing change in severity of psoriasis symptoms) and 2 subject global impressions of change items (assessing change in severity of psoriasis symptoms and change in severity of itch/pruritus) were also assessed.
Physician Global Assessment: The PGA is a clinical tool for assessing the current state/severity of a subject's psoriasis. It is a static 5-point morphological assessment of overall disease severity, as determined by the investigator, using the clinical characteristics of erythema, plaque thickness, and scaling as guidelines. At each specified time point, the PGA is made without reference to previous scores. Variations of the PGA are frequently used in clinical studies because it is a simple assessment that is more similar to the assessments actually used in clinical practice. Scoring system ranges from 0 (=Clear) to 4 (=Severe).
Psoriasis Area and Severity Index: The PASI scoring system is a widely-used standard clinical tool for assessing the severity of psoriasis that takes into account the overall severity of erythema (redness), thickness (induration), and scale, as well as the extent of BSA affected with psoriasis. The 3 clinical signs are each graded on a 5 point scale (0 to 4) and the % BSA affected is scored on a 7-point scale (0 to 6) for each of the 4 specified body regions (head, upper extremities, trunk, and lower extremities). The individual scores are multiplied by a weighted factor for each body region; the sum of these scores gives the overall PASI score. Higher scores indicate more severe disease. PASI is a static assessment made without reference to previous scores.
Body Surface Area: The extent of BSA affected by psoriasis is a general indicator of disease severity and was measured throughout the study. The extent of BSA to which study treatment was applied was also recorded. For the purpose of approximate clinical estimation, the total palmar surface of the palm plus 5 digits was assumed to be approximately equivalent to 1% BSA.
Target Lesion Grading: A single target lesion was selected at Baseline to assess efficacy in treating a discrete area rather than an overall average of all areas. For that lesion, the severity of erythema, scaling, and plaque thickness was assessed by the investigator on a 5-point scale ranging from “0=none” to “4=severe”. […]

CC(C)c1c(O)cc(/C=C/c2ccccc2)cc1O [Tapinarof, 3,5-Dihydroxy-4-isopropyl-trans-stilbene]
difference in PGA response rate, active minus vehicle (0.5% BID-vehicle BID, Week 12): 35.6% | PGA response at Week 12 (0.5% BID, 1 to <10% BSA affected at baseline): 33% | Target lesion Erythema, percent change from Baseline (Mean) (0.5% BID, Early WD): −25.00% | Target lesion Plaque thickness, percent change from Baseline (Mean) (0.5% BID, Early WD): −33.33% | Target lesion Scaling, percent change from Baseline (Mean) (0.5% BID, Early WD): −41.67% | PGA response at Week 12 (0.5% BID, Fitzpatrick skin type I/II): 50% | PGA response at Week 12 (0.5% BID, Fitzpatrick skin type III/IV): 60% | PGA response at Week 12 (0.5% BID, Fitzpatrick skin type V/VI): 25% | Target lesion Erythema, percent change from Baseline (Mean) (0.5% BID, Follow-up Week 14): −68.25% | Target lesion Plaque thickness, percent change from Baseline (Mean) (0.5% BID, Follow-up Week 14): −67.86% | Target lesion Scaling, percent change from Baseline (Mean) (0.5% BID, Follow-up Week 14): −68.65% | Target lesion Erythema, percent change from Baseline (Mean) (0.5% BID, Follow-up/Week 16): −59.47% | Target lesion Plaque thickness, percent change from Baseline (Mean) (0.5% BID, Follow-up/Week 16): −54.92% | Target lesion Scaling, percent change from Baseline (Mean) (0.5% BID, Follow-up/Week 16): −57.95% | Target lesion Erythema, percent change from Baseline (Mean) (0.5% BID, Week 1): −9.95% | Target lesion Plaque thickness, percent change from Baseline (Mean) (0.5% BID, Week 1): −14.52% | Target lesion Scaling, percent change from Baseline (Mean) (0.5% BID, Week 1): −12.37% | Target lesion Erythema, percent change from Baseline (Mean) (0.5% BID, Week 2): −23.61% | Target lesion Plaque thickness, percent change from Baseline (Mean) (0.5% BID, Week 2): −33.89% | Target lesion Scaling, percent change from Baseline (Mean) (0.5% BID, Week 2): −35.00% | Target lesion Erythema, percent change from Baseline (Mean) (0.5% BID, Week 4): −45.54% | Target lesion Plaque thickness, percent change from Baseline (Mean) (0.5% BID, Week 4): −44.64% | Target lesion Scaling, percent change from Baseline (Mean) (0.5% BID, Week 4): −50.89% | Target lesion Erythema, percent change from Baseline (Mean) (0.5% BID, Week 8): −62.33% | Target lesion Plaque thickness, percent change from Baseline (Mean) (0.5% BID, Week 8): −62.67% | Target lesion Scaling, percent change from Baseline (Mean) (0.5% BID, Week 8): −60.00% | PGA response rate (primary endpoint) (0.5% BID, Week 8): 36% | Mean change in nine items of the PSD from baseline (0.5% BID, Week 12): −4.2^‡ | Mean change in total target lesion grading scores from baseline (0.5% BID, Week 12): −6.2* | Target lesion Erythema, percent change from Baseline (Mean) (0.5% BID, Week 12): −76.52% | Target lesion Plaque thickness, percent change from Baseline (Mean) (0.5% BID, Week 12): −71.59% | Target lesion Scaling, percent change from Baseline (Mean) (0.5% BID, Week 12): −78.03% | subjects with ≥4 improvement in pruritus NRS score from baseline (0.5% BID, Week 12): 56% | PGA response rate (PGA 0 or 1 and ≥2-grade improvement) (0.5% BID, Week 12): 46% | PASI50 response rate (0.5% BID, Week 16): 62% | PASI75 response rate (0.5% BID, Week 16): 46% | PASI90 response rate (0.5% BID, Week 16): 27% | PGA treatment success (0.5% BID): 35% | PGA response at Week 12 (0.5% BID, psoriasis duration 5 years to <10 years): 20% | PGA response at Week 12 (0.5% BID, psoriasis duration 6 months to <5 years): 50% | PGA response at Week 12 (0.5% BID, psoriasis duration ≥10 years): 53% | PGA response at Week 12 (0.5% BID, ≥10% BSA affected at baseline): 75% | difference in PGA response rate, active minus vehicle (0.5% QD-vehicle QD, Week 12): 30.7% | PGA response at Week 12 (0.5% QD, 1 to <10% BSA affected at baseline): 35% | Target lesion Erythema, percent change from Baseline (Mean) (0.5% QD, Early WD): 8.33% | Target lesion Plaque thickness, percent change from Baseline (Mean) (0.5% QD, Early WD): 0.00% | Target lesion Scaling, percent change from Baseline (Mean) (0.5% QD, Early WD): −16.67% | PGA response at Week 12 (0.5% QD, Fitzpatrick skin type I/II): 25% | PGA response at Week 12 (0.5% QD, Fitzpatrick skin type III/IV): 44% | PGA response at Week 12 (0.5% QD, Fitzpatrick skin type V/VI): 25% | Target lesion Erythema, percent change from Baseline (Mean) (0.5% QD, Follow-up Week 14): −63.77% | Target lesion Plaque thickness, percent change from Baseline (Mean) (0.5% QD, Follow-up Week 14): −67.39% | Target lesion Scaling, percent change from Baseline (Mean) (0.5% QD, Follow-up Week 14): −67.75% | Target lesion Erythema, percent change from Baseline (Mean) (0.5% QD, Follow-up/Week 16): −73.96% | Target lesion Plaque thickness, percent change from Baseline (Mean) (0.5% QD, Follow-up/Week 16): −71.53% | Target lesion Scaling, percent change from Baseline (Mean) (0.5% QD, Follow-up/Week 16): −69.79% | Target lesion Erythema, percent change from Baseline (Mean) (0.5% QD, Week 1): −14.25% | Target lesion Plaque thickness, percent change from Baseline (Mean) (0.5% QD, Week 1): −10.22% | Target lesion Scaling, percent change from Baseline (Mean) (0.5% QD, Week 1): −20.97% | Target lesion Erythema, percent change from Baseline (Mean) (0.5% QD, Week 2): −28.13% | Target lesion Plaque thickness, percent change from Baseline (Mean) (0.5% QD, Week 2): −26.04% | Target lesion Scaling, percent change from Baseline (Mean) (0.5% QD, Week 2): −34.38% | Target lesion Erythema, percent change from Baseline (Mean) (0.5% QD, Week 4): −35.48% | Target lesion Plaque thickness, percent change from Baseline (Mean) (0.5% QD, Week 4): −42.47% | Target lesion Scaling, percent change from Baseline (Mean) (0.5% QD, Week 4): −51.34% | Target lesion Erythema, percent change from Baseline (Mean) (0.5% QD, Week 8): −50.81% | Target lesion Plaque thickness, percent change from Baseline (Mean) (0.5% QD, Week 8): −60.75% | Target lesion Scaling, percent change from Baseline (Mean) (0.5% QD, Week 8): −68.01% | PGA response rate (primary endpoint) (0.5% QD, Week 8): 46% | Mean change in nine items of the PSD from baseline (0.5% QD, Week 12): −4.1^† | Mean change in total target lesion grading scores from baseline (0.5% QD, Week 12): −5.8* | PASI90 response rate (0.5% QD, Week 12): 18% | Target lesion Erythema, percent change from Baseline (Mean) (0.5% QD, Week 12): −65.06% | Target lesion Plaque thickness, percent change from Baseline (Mean) (0.5% QD, Week 12): −67.31% | Target lesion Scaling, percent change from Baseline (Mean) (0.5% QD, Week 12): −72.76% | subjects with ≥4 improvement in pruritus NRS score from baseline (0.5% QD, Week 12): 57% | PGA response rate (PGA 0 or 1 and ≥2-grade improvement) (0.5% QD, Week 12): 36% | PASI50 response rate (0.5% QD, Week 16): 71% | PASI75 response rate (0.5% QD, Week 16): 54% | PASI90 response rate (0.5% QD, Week 16): 18% | PGA treatment success (0.5% QD): 36% | PGA response at Week 12 (0.5% QD, psoriasis duration 5 years to <10 years): 50% | PGA response at Week 12 (0.5% QD, psoriasis duration 6 months to <5 years): 29% | PGA response at Week 12 (0.5% QD, psoriasis duration ≥10 years): 33% | PGA response at Week 12 (0.5% QD, ≥10% BSA affected at baseline): 38% | subjects rating overall psoriasis symptoms very improved or moderately improved (0.5% groups, Week 12): 77-80% | subjects rating pruritus symptoms very improved or moderately improved (0.5% groups, Week 12): 73-77% | PASI75 responders who maintained response from Week 12 to Week 16 (1% BID): 80% | PGA responders who maintained response from Week 12 to Week 16 (1% BID): 67% | difference in PGA response rate, active minus vehicle (1% BID-vehicle BID, Week 12): 54.7% | PGA response at Week 12 (1% BID, 1 to <10% BSA affected at baseline): 67%
